Measurements from ChEMBL document CHEMBL1165992, “A statistical analysis of in vitro human microsomal metabolic stability of small phenyl group substituents, leading to improved design sets for parallel SAR exploration of a chemical series” (Bioorg Med Chem, 2010).

Experiments:
[1] = in vitro; settings: human
Description: Intrinsic clearance in human liver microsomes assessed per mg of microsomal protein at 0.2 to 1 uM after 30 mins by HPLC analysis

[2] = target: 11-beta-hydroxysteroid dehydrogenase 1 (Homo sapiens, UniProt P28845); assay: Inhibition of human 11beta-HSD1 by competitive binding assay
Sequence of 11-beta-hydroxysteroid dehydrogenase 1 (P28845 whole entry): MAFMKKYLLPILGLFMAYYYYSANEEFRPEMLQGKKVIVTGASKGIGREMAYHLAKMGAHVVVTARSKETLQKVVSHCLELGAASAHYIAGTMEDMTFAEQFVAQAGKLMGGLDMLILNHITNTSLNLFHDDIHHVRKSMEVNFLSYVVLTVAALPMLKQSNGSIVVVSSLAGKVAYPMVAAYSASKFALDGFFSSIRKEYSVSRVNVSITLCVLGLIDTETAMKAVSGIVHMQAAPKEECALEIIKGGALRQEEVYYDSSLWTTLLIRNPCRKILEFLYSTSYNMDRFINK

Structure (SMILES)	microsomal CLint at 0.5 h, 1 µM ([1]; liver microsomes)	microsomal CLint at 0.5 h, 1 µM ([1]; microsomes)	IC50 [2]
O=C(c1ccc(F)cc1)C1CCN(C(=O)c2cccc(F)c2)CC1	31.9 µL/min/mg		
CCN(C(=O)NCc1ccc(S(C)(=O)=O)cc1)C1CCN(CCC(c2ccc(F)cc2)C2CCN(Cc3cccnc3)CC2)CC1 (configuration not stated)	5 µL/min/mg		
CCN(C(=O)NCc1ccc(S(C)(=O)=O)cc1)C1CCN(CCC(c2ccc(F)cc2)C2CCN(Cc3ccc4ccccc4n3)CC2)CC1 (configuration not stated)	3 µL/min/mg		
CCN(C(=O)NCc1ccc(S(C)(=O)=O)cc1)C1CCN(CCC(c2ccccc2)C2CCN(Cc3cccnc3)CC2)CC1 (configuration not stated)	> 150 µL/min/mg		
O=C(c1ccc(F)cc1)C1CCN(C(=O)c2ccc(Cl)c(Cl)c2)CC1	16.5 µL/min/mg		
CCN(C(=O)NCc1ccc(F)cc1)C1CCN(CCC(c2ccccc2)c2ccccc2)CC1		105 µL/min/mg	
CCN(C(=O)NCc1cccc(F)c1)C1CCN(CCC(c2ccccc2)c2ccccc2)CC1	86 µL/min/mg		
CCN(C(=O)NCc1ccccc1F)C1CCN(CCC(c2ccccc2)c2ccccc2)CC1	74 µL/min/mg		
NS(=O)(=O)c1cccc(C(=O)N2CCC(C(=O)c3ccc(F)cc3)CC2)c1	13 µL/min/mg		> 30 µM
O=C(c1ccc(F)cc1)C1CCN(C(=O)c2cccc(C(F)(F)F)c2)CC1	13.7 µL/min/mg		
O=C(c1ccc(F)cc1)C1CCN(C(=O)c2ccc(-c3ccccc3)cc2)CC1	4.93 µL/min/mg		
O=C(c1ccc(F)cc1)C1CCN(C(=O)c2ccc(Cl)cc2Cl)CC1	41.2 µL/min/mg		> 30 µM
O=C(c1ccc(F)cc1)C1CCN(C(=O)c2cccc(Cl)c2)CC1	22.2 µL/min/mg		
O=C(c1ccc(F)cc1)C1CCN(C(=O)c2cc(F)cc(F)c2)CC1	25.3 µL/min/mg		> 30 µM
COc1ccccc1C(=O)N1CCC(C(=O)c2ccc(F)cc2)CC1	14.3 µL/min/mg		23.6 µM
CS(=O)(=O)c1cccc(C(=O)N2CCC(C(=O)c3ccc(F)cc3)CC2)c1	11.4 µL/min/mg		> 30 µM
COc1cccc(C(=O)N2CCC(C(=O)c3ccc(F)cc3)CC2)c1	12.9 µL/min/mg		
Nc1ccccc1C(=O)N1CCC(C(=O)c2ccc(F)cc2)CC1	15.6 µL/min/mg		
O=C(c1ccc(F)cc1)C1CCN(C(=O)c2ccccc2Cl)CC1	32.6 µL/min/mg		
O=C(c1ccc(F)cc1)C1CCN(C(=O)c2ccccc2)CC1	23 µL/min/mg		3.61 µM
O=C(c1ccc(F)cc1)C1CCN(C(=O)c2ccccc2OC(F)(F)F)CC1	16.9 µL/min/mg		
O=C(c1ccc(F)cc1)C1CCN(C(=O)c2cccc(Br)c2)CC1	19.3 µL/min/mg		
CCN(C(=O)NCc1c(F)cccc1F)C1CCN(CCC(c2ccccc2)c2ccccc2)CC1	6 µL/min/mg		
CN(C)c1cccc(C(=O)N2CCC(C(=O)c3ccc(F)cc3)CC2)c1	53.5 µL/min/mg		
O=C(c1ccc(F)cc1)C1CCN(C(=O)c2ccc(C(F)(F)F)cc2)CC1	15.5 µL/min/mg		
COc1ccc(C(=O)N2CCC(C(=O)c3ccc(F)cc3)CC2)c(OC)c1	15.8 µL/min/mg		
N#Cc1cccc(C(=O)N2CCC(C(=O)c3ccc(F)cc3)CC2)c1	14.5 µL/min/mg		> 30 µM
COc1ccc(C(=O)N2CCC(C(=O)c3ccc(F)cc3)CC2)cc1	22.6 µL/min/mg		15.8 µM

Structure (SMILES)	microsomal CLint at 0.5 h, 1 µM ([1]; liver microsomes)	microsomal CLint at 0.5 h, 1 µM ([1]; microsomes)	IC50 [2]
O=C(c1ccc(F)cc1)C1CCN(C(=O)c2ccccc2F)CC1	46.5 µL/min/mg		7.44 µM
O=C(c1ccc(F)cc1)C1CCN(C(=O)c2ccc(N3CCOCC3)cc2)CC1	15.2 µL/min/mg		
Cc1cccc(C(=O)N2CCC(C(=O)c3ccc(F)cc3)CC2)c1	43.6 µL/min/mg		
COc1cccc(C(=O)N2CCC(C(=O)c3ccc(F)cc3)CC2)c1OC	14.9 µL/min/mg		
O=C(c1ccc(F)cc1)C1CCN(C(=O)c2cccc(F)c2F)CC1	18 µL/min/mg		> 30 µM
O=C(c1ccc(F)cc1)C1CCN(C(=O)c2ccc(Cl)c(C(F)(F)F)c2)CC1	11.5 µL/min/mg		
NS(=O)(=O)c1ccc(C(=O)N2CCC(C(=O)c3ccc(F)cc3)CC2)cc1	12.3 µL/min/mg		> 30 µM
O=C(c1ccc(F)cc1)C1CCN(C(=O)c2ccc(F)cc2)CC1	17.1 µL/min/mg		21.8 µM
CC(=O)c1ccc(C(=O)N2CCC(C(=O)c3ccc(F)cc3)CC2)cc1	19.8 µL/min/mg		
CCN(C(=O)NCc1ccc(S(C)(=O)=O)cc1)C1CCN(CCC(c2ccccc2)C2CCN(Cc3ccc4ccccc4n3)CC2)CC1 (configuration not stated)	> 150 µL/min/mg		
CS(=O)(=O)Nc1cccc(C(=O)N2CCC(C(=O)c3ccc(F)cc3)CC2)c1	9.23 µL/min/mg		> 30 µM
Cc1ccc(C(=O)N2CCC(C(=O)c3ccc(F)cc3)CC2)cc1	41.8 µL/min/mg		3.41 µM
CS(=O)(=O)c1ccc(C(=O)N2CCC(C(=O)c3ccc(F)cc3)CC2)cc1	12.4 µL/min/mg		> 30 µM
Cc1ccccc1C(=O)N1CCC(C(=O)c2ccc(F)cc2)CC1	23.5 µL/min/mg		
O=C(c1ccc(F)cc1)C1CCN(C(=O)c2ccc(OC(F)(F)F)cc2)CC1	17.9 µL/min/mg		
CCN(C(=O)NCc1cc(F)cc(F)c1)C1CCN(CCC(c2ccccc2)c2ccccc2)CC1	< 3 µL/min/mg		
Cc1ncc(-c2ccnc(Nc3ccccc3)n2)n1C(C)C	63.5 µL/min/mg		
O=C(c1ccc(F)cc1)C1CCN(C(=O)c2ccc(Cl)cc2)CC1	18.6 µL/min/mg		6.02 µM
O=C(c1ccc(F)cc1)C1CCN(C(=O)c2cccc(OC(F)(F)F)c2)CC1	31.8 µL/min/mg		
O=C(c1ccc(F)cc1)C1CCN(C(=O)c2ccc(F)cc2Cl)CC1	18 µL/min/mg		
O=C(c1ccc(F)cc1)C1CCN(C(=O)c2ccc(F)c(F)c2)CC1	12.5 µL/min/mg		
N#Cc1ccccc1C(=O)N1CCC(C(=O)c2ccc(F)cc2)CC1	28.4 µL/min/mg		
N#Cc1ccc(C(=O)N2CCC(C(=O)c3ccc(F)cc3)CC2)cc1	11.7 µL/min/mg		> 30 µM
O=C(c1ccc(F)cc1)C1CCN(C(=O)c2cccc([N+](=O)[O-])c2)CC1	5.3 µL/min/mg		
O=C(c1ccc(F)cc1)C1CCN(C(=O)c2ccc([N+](=O)[O-])cc2)CC1	9 µL/min/mg		
O=C(c1ccc(F)cc1)C1CCN(C(=O)c2ccc(Br)cc2)CC1	22.7 µL/min/mg		
CCN(C(=O)NCc1cc(F)ccc1F)C1CCN(CCC(c2ccccc2)c2ccccc2)CC1	< 4 µL/min/mg		
